From ChEMBL document CHEMBL1201862, “PubChem BioAssay data set” (2004)
Calls of active or inactive are those of the source.

How the values were obtained:
[1] = A549 cell cytotoxicity, dose response, cytotoxicity control, cherry-picks, 26 µM top dose (AID 1053119); assay type: functional, cell-based
[2] = HepG2 cell cytotoxicity, dose response, cytotoxicity control, cherry-picks, set 5 (AID 1053118); assay type: functional, cell-based
[3] = HEK293 cell cytotoxicity, dose response, cytotoxicity control, cherry-picks, set 5 (AID 1053117); assay type: functional, cell-based
[4] = T. cruzi intracellular amastigote growth inhibition, dose response, imaging, CA-I/72 strain, bovine embryo skeletal muscle, dry powder (AID 651885); assay type: functional, cell-based
[5] = biological target: Metabotropic glutamate receptor 3 (Rattus norvegicus, UniProt P31422); test: mGlu3 negative allosteric modulator potency, dose response, HEK/GIRK cells, thallium flux, rat (AID 651839); assay type: functional
cells [6] = test: cells
[7] = biological target: Luciferin 4-monooxygenase (Photinus pyralis, UniProt P08659); test: firefly luciferase enzyme inhibitors, dose response, biochemical, luminescence (AID 1891)
[8] = Luminescence Cell-Based Dose Confirmation HTS to Identify Inhibitors of Platelet Dense Granule Release. [Related pubchem assays: 1663 (Primary HTS), 1678 (Summary of Project)]; assay type: functional
[9] = biological target: T1, Oxysterols receptor LXR-beta (Homo sapiens, UniProt P55055); assay type: functional, cell-based;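 note: Cell-based luminescence dose-response assay of agonist activity at LXR, run as a confirmatory counterscreen to a daf-12 agonist screen; HEK293 cells with Gal4-LXR fusion and GAL4-driven luciferase reporter; agonist potency from rising luciferase signal of a Gal4-LXR reporter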
T1 sequence (P55055 whole entry): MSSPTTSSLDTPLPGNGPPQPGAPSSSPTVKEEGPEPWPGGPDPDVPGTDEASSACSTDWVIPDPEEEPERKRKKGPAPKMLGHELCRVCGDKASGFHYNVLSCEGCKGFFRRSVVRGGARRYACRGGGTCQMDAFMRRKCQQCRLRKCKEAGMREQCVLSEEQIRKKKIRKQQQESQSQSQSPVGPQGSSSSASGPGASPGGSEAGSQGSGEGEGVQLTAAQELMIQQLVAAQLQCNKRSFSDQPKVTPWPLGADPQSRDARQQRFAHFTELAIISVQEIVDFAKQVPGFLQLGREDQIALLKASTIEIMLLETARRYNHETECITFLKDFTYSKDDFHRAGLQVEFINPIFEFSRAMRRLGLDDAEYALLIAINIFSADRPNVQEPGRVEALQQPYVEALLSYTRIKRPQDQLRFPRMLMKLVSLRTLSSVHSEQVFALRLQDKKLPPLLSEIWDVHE

Galanin receptor type 3 = Galanin receptor type 3 (Homo sapiens, UniProt O60755); test: Fluorescence-based cell-based primary high throughput dose response assay to identify antagonists of the Galanin Receptor 3 (GalR3).; assay type: functional
cells [10] = assay type: functional, cell-based; details: HEK-CNG
[11] = biological target: NAD-dependent protein deacylase sirtuin-5, mitochondrial (Homo sapiens, UniProt Q9NXA8); test: SIRT5 deacylase inhibitors, dose response, biochemical, fluorescence imaging, cherry-pick, set 6 (AID 720597)
[12] = Cytotoxicity screening for potential Inhibitors of Bacterial Capsule Biogenesis (4).; assay type: functional
A549 = test: A549 cell toxicity, dose response, cytotoxicity control, plate reader, cherry-pick samples (AID 687028); assay type: functional, cell-based; details: Homo sapiens
Vero = test: Vero cell toxicity, dose response, cytotoxicity control, plate reader, cherry-pick samples (AID 687020); assay type: functional, cell-based; details: Chlorocebus sabaeus
HepG2 = test: HepG2 cell cytotoxicity, dose response, cytotoxicity control, cherry-picks, set 2 (AID 687002); assay type: functional, cell-based; details: Homo sapiens
[13] = CFTR ΔF508 corrector activity in bronchial cells, dose response, human bronchial epithelial cells, plate reader, cherry-pick, two tests (AID 743267); assay type: functional, cell-based

Luciferin 4-monooxygenase, sequence (P08659 whole entry): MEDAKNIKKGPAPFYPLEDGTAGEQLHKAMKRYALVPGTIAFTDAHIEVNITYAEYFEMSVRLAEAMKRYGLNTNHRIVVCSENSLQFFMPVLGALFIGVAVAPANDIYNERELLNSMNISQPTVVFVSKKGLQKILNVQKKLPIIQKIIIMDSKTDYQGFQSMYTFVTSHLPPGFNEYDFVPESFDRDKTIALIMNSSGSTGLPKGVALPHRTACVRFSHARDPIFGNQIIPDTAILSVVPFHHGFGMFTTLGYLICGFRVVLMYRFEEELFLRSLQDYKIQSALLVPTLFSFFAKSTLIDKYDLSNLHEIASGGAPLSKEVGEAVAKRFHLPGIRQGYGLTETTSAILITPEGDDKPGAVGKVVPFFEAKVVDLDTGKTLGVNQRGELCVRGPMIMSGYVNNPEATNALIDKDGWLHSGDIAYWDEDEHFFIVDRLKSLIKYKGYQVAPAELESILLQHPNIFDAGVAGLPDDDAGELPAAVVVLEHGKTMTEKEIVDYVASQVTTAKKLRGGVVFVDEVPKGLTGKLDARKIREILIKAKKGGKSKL
Galanin receptor type 3, sequence (O60755 whole entry): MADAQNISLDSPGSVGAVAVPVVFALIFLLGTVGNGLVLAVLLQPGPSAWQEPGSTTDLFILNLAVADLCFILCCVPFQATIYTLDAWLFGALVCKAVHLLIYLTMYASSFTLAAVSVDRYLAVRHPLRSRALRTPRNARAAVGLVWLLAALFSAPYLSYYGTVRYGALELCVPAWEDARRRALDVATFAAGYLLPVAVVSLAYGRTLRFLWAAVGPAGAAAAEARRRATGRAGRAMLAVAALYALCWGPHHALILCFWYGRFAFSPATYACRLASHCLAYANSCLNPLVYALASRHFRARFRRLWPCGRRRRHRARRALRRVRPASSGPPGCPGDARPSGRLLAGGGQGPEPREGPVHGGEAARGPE
Metabotropic glutamate receptor 3, sequence (P31422 whole entry): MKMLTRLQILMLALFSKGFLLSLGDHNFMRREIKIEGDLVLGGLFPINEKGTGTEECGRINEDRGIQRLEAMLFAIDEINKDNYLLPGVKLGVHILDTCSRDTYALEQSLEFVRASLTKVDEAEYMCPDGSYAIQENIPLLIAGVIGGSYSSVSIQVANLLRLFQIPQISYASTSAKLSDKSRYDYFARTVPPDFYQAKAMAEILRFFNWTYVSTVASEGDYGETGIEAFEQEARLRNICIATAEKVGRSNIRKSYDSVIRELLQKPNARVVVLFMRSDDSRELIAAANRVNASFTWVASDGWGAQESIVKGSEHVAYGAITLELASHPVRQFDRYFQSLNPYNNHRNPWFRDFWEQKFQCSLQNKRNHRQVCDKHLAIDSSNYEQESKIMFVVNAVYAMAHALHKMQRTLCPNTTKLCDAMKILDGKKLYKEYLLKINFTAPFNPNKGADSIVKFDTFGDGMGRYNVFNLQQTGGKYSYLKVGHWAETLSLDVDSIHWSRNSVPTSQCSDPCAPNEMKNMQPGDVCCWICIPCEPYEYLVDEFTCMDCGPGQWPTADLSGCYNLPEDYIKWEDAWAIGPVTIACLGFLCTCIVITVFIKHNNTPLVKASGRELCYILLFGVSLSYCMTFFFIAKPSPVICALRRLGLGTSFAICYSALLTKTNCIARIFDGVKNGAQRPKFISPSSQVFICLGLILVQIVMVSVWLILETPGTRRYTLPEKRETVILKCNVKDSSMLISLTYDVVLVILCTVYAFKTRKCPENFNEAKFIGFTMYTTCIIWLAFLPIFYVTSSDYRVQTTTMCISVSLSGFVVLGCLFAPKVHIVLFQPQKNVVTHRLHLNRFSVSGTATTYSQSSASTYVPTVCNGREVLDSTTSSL
NAD-dependent protein deacylase sirtuin-5, mitochondrial, sequence (Q9NXA8 whole entry): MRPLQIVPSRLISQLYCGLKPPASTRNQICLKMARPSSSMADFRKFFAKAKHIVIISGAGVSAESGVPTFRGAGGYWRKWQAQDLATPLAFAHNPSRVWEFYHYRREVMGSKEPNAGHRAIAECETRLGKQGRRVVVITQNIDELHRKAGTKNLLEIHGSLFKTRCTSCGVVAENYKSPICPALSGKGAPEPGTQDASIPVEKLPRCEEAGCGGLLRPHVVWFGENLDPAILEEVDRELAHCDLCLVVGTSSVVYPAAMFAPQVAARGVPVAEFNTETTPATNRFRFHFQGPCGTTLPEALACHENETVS

Question: With `O=C(Nc1ccc(Cl)cc1)N1C[C@H]2[C@@H](c3ccccc31)[C@H](CO)N2CC1CCCC1` as the compound, how does the AC50 [1] read?
Answer: Its AC50 is 47.5 µM (active).

Question: What about the AC50 [2] of the same compound?
Answer: The AC50 was 35.8 µM (active).

Question: And the AC50 [3]?
Answer: Its AC50 is 40.4 µM (active).

Question: With `C[C@@H]1CN([C@@H](C)CO)C(=O)c2cccc(NC(=O)c3ccncc3)c2O[C@H]1CN(C)C` as the compound, how does the IC50 [4] read?
Answer: Its IC50 is > 20 µM (inactive).

Question: Which IC50 [5] does the source give for `COc1ccc(C#Cc2ccc(C(=O)N3CCC(CO)C3)cc2)c(F)c1` (configuration not stated) here?
Answer: The IC50 was 6.85 µM (active).

Question: With `N=C(NOC(=O)c1ccc(Cl)cc1Cl)c1ccccc1` as the compound, how does the EC50 (cells [6]) read?
Answer: The EC50 was > 67.5 µM (inactive).

Question: And the EC50 [7]?
Answer: Its EC50 is 1.06 µM (active).

Question: And the EC50 [8]?
Answer: Its EC50 is 6.01 µM (active).

Question: What about the EC50 [9] of the same compound?
Answer: Its EC50 is > 67.5 µM (inactive).

Question: What does the source list for `COc1cccc2[nH]c3c(N4CCCC(C)C4)ncnc3c12` (configuration not stated)?
Answer: IC50 (Galanin receptor type 3): 0.4 µM (active); EC50 (cells [10]): > 29.9 µM (inactive)

Question: For `C[C@@H]1CN([C@H](C)CO)S(=O)(=O)c2ccc(/C=C/c3ccccc3)cc2O[C@H]1CN(C)C(=O)Nc1cc(F)ccc1F`, which AC50 [11] is on record?
Answer: The AC50 was > 30 µM (inactive).

Question: Which CC50 [12] does the source give for `COc1cc(NC(=O)c2ccc3nc(N)sc3c2)ccn1` here?
Answer: The CC50 was 172 µM (active).

Question: What does the source list for `COc1ccccc1C(=O)N1[C@@H](C(C)C)COc2cc(Br)ccc2S1(=O)=O`?
Answer: AC50 (A549): 24.4 µM (active); AC50 (Vero): 28 µM (active)

Question: For `O=C(CSc1ncnc2c1cnn2-c1ccccc1)Nc1ccc2c(c1)OCO2`, which AC50 (HepG2) is on record?
Answer: The AC50 was 14 µM (active).

Question: For `COc1cccc(-c2ccc([C@@H]3[C@@H]4CN(S(=O)(=O)c5cccc(OC)c5)C[C@H]3N4)cc2)c1`, which AC50 [13] is on record?
Answer: Its AC50 is 13.5 µM (active).
